Patent US20230000813A1, “COMPOUND FOR THE TREATMENT OF BOVINE OR SWINE RESPIRATORY DISEASE” (Intervet Inc., priority 2016, published 2023)
Values joined by “and” are separate entries in the source; they are usually repeats but may differ in a detail not shown here. Equal values may be shown once. Marks after values point to notes of the source that are not given here.

Columns and labels:
[1] = tested on: M. haemolytica M7/2, serotype A:1, ID 6357; assay: Mannheimia haemolytica cattle lung infection model, efficacy (Example 8); format: in vivo, Holstein black pied cattle calves; parameters: key to General behavior, score: 0 = normal; 1 = slightly depressive; 2 = moderately depressive; 3 = highly depressive; 4 = recumbency; key to Re-isolation of bacteria, Left Bronchial swab / Re-isolation of bacteria, Right Bronchial swab: − no bacterial growth; + low; ++ medium; +++ high amount of bacterial growth; conditions: for Food consumption, cumulated for all animals in the group: 3 calves; for Lung score (including grade and percent Lung consolidation): grade of consolidation 0 to 3
Method: 15 male Holstein black pied cattle calves of ca. 4 months age were randomly assigned to the study groups ensuring an equal distribution of body weight. The animal weight was approximately 98-133.5 kg on D-1.
Calves were infected on Day 0 via intratracheal instillation of approximately 300 mL of a M. haemolytica PBS suspension containing approximately 3×10^9 CFU M. haemolytica in late log phase.
Three animals each were treated one hour after infection by subcutaneous (SC) administration of Compound 329 in an aqueous 30% (w/v) Captisol® solution for injection at a dose of 10 mg/kg BW.
The respective dose volume was injected on the sides of the thoracic wall. Injection volumes exceeding 10 mL were divided into one portion of 10 mL administered to the left side and the remaining rest administered at different injection sites on the other side. Animals in one control group were treated with a commercially available Enrofloxacin solution (Baytril ® 10%, Bayer Animal Health) at the recommended dose of 10 mg/kg BW. The second control group was treated with the galenic diluent (30% (w/v) Captisol®, dissolved in water) as placebo.
Food consumption was measured. Single individual blood samples were collected from the 12 animals at the following time points: D-1 (predose), 30 minutes, 2, 4, 6, 24 h and at D2 (ca. 45 h) after administration. After the day 2 blood sampling, the infected cattle were slaughtered. The lungs were weighted. Lung states and lung scores were observed morphologically.
At necropsy from animals treated with test items or the positive control, samples of epithelial lining fluid (ELF), lung tissue, and additionally tissue of liver and kidney were collected. From each lung two bacteriological swaps were taken from the left and right bronchus.
From each lung two tissue samples were collected by clipping from at least two locations, one from morphologically unchanged tissue, one from the edge of pathomorphologically changed areas.

M. haemolytica = assay: Mannheimia haemolytica cattle lung infection model, efficacy (Example 10); format: in vivo, cattle calves; conditions: for Food consumption, cumulated for all animals in the group: 3 calves; for Bacteriological Cure (x of n) / Survival (x of n): calves infected with M. haemolytica, SC, single
Method: Unless otherwise described the study was conducted as described in Clinical Example 8
Calves were infected via intratracheal instillation of appr. 300 mL of M. haemolytica PBS suspension containing approximately 4×10^9 CFU M. haemolytica in late log phase on Day 0.
One hour later three animals each were treated with 10 mg/kg of Compound 231(referred to as C. 231) (80 mg/mL in 10% Poloxamer 188), or 10 mg/kg or 5 mg/kg Compound 329 (referred to as C. 329) (150 mg/mL in 35% Cavitron).
The following clinical findings were recorded: The general behavior scores of the animals before (DO am) and after infection with M. haemolytica in the different treated and control groups are indicated in FIG. 8-1: 0=normal; 1=slightly depressive, 2=moderately depressive, 3=highly depressive, 4=recumbency.
The following pathomorphological findings after section on Day 2 were recorded: After measuring the body weight and the lung weight the Lung body mass ratio was calculated as shown in FIG. 8-2. A healthy animal has a lung body mass ration around 1.7 or lower. The area percentage of lung consolidations compared to the total lung tissue and the lung score determined that is a combined score of such percentage of lung consoldiations and the grade. For the “grade” the degree of lung consolidation score was graded from 0 to 3 for each of eight lung lobes: 0 no visible changes, 1 low graded colour changes or induration, 2 medium graded induration, 3 high graded induration, hepatisation, necrosis.
The geometrical means (CFU/g tissue) of bacteriological re-isolations of Mannheimia haemolytica from lung tissue are illustrated in FIG. 8-4.

[2] = infected calves, SC 10 mg/kg, in words
[3] = section on day 2, infected calves, SC 10 mg/kg, individual animals and mean, 10 mg/kg
[4] = section on day 2, infected calves, SC 10 mg/kg, individual animals and mean, 10 mg/kg, mean
[5] = section on day 2, infected calves, SC single 10 mg/kg, individual animals

CC(C)(N)C(NC(=O)c1ccc(C#Cc2ccc(CNC3CC3)cc2)cc1)C(=O)NO (stereo not drawn) [C. 329]
General behavior, score ([1]; D 0 am (before infection), calves, SC 10 mg/kg, individual animals and mean, 10 mg/kg): 0
General behavior, score ([1]; D 0 am (before infection), calves, SC 10 mg/kg, individual animals and mean, 10 mg/kg, mean): 0.0 score
Food consumption, cumulated for all animals in the group ([1]; D 0 am, after infection and treatment, SC 10 mg/kg): 470 g
Food consumption, cumulated for all animals in the group ([1]; D 0 pm, SC 10 mg/kg): 1800** g
General behavior, score ([1]; D 0 pm, calves infected with M. haemolytica, SC 10 mg/kg 1 h after infection, individual animals and mean, 10 mg/kg): 2 and 1 (2×)
General behavior, score ([1]; D 0 pm, calves infected with M. haemolytica, SC 10 mg/kg 1 h after infection, individual animals and mean, 10 mg/kg, mean): 1.3 score
General behavior, score ([1]; D 1 am, calves infected with M. haemolytica, SC 10 mg/kg 1 h after infection, individual animals and mean, 10 mg/kg): 1 and 0 (2×)
General behavior, score ([1]; D 1 am, calves infected with M. haemolytica, SC 10 mg/kg 1 h after infection, individual animals and mean, 10 mg/kg, mean): 0.3 score
General behavior, score ([1]; D 1 pm, calves infected with M. haemolytica, SC 10 mg/kg 1 h after infection, individual animals and mean, 10 mg/kg): 1 (2×) and 0
General behavior, score ([1]; D 1 pm, calves infected with M. haemolytica, SC 10 mg/kg 1 h after infection, individual animals and mean, 10 mg/kg, mean): 0.7 score
General behavior, score ([1]; D 2 am, calves infected with M. haemolytica, SC 10 mg/kg 1 h after infection, individual animals and mean, 10 mg/kg): 0
General behavior, score ([1]; D 2 am, calves infected with M. haemolytica, SC 10 mg/kg 1 h after infection, individual animals and mean, 10 mg/kg, mean): 0.0 score
Food consumption, cumulated for all animals in the group ([1]; D +1 am, SC 10 mg/kg): 4800 g
Food consumption, cumulated for all animals in the group ([1]; D +1 pm, SC 10 mg/kg): 4800 g
Food consumption, cumulated for all animals in the group ([1]; D −1 (before infection), SC 10 mg/kg): 4800 g
general behavior and food uptake [1, 2]: comparable to the positive control
mean bacterial re-isolation [1, 2]: Very low
Lung score (including grade and percent Lung consolidation) [1, 3]: 32.4 and 29.5 and 37.7
Lung score (including grade and percent Lung consolidation) [1, 4]: 33.2
Lung consolidations [1, 3]: 20.9% and 14.8% and 21.6%
Lung weight [1, 3]: 1717 g and 1549 g and 1583 g
Lung/body weight ratio [1, 3]: ~1.3% and 1.36% and 1.30% and 1.41%
Lung consolidations [1, 4]: 19.1%
Lung weight [1, 4]: 1616 g
Re-isolation of bacteria, Left Bronchial swab [1, 5]: −
Re-isolation of bacteria, Right Bronchial swab [1, 5]: −
efficacy in the lung model infection with M. haemolytica in calves ([1]; single SC treatment with 10 mg/kg BW, conclusion in words): good efficacy
Food consumption, cumulated for all animals in the group (M. haemolytica; D 0 am, after infection and treatment, 5 mg/kg): 1213 g
Food consumption, cumulated for all animals in the group (M. haemolytica; D 0 am, after infection and treatment, 10 mg/kg): 1800** g
Food consumption, cumulated for all animals in the group (M. haemolytica; D 0 pm, 5 mg/kg): 4800 g
Food consumption, cumulated for all animals in the group (M. haemolytica; D 0 pm, 10 mg/kg): 4800 g
Food consumption, cumulated for all animals in the group (M. haemolytica; D +1 am, 5 mg/kg): 4800 g
Food consumption, cumulated for all animals in the group (M. haemolytica; D +1 am, 10 mg/kg): 4800 g
Food consumption, cumulated for all animals in the group (M. haemolytica; D +1 pm, 5 mg/kg): 4800 g
Food consumption, cumulated for all animals in the group (M. haemolytica; D +1 pm, 10 mg/kg): 4800 g
Food consumption, cumulated for all animals in the group (M. haemolytica; D −1 (before infection), 5 mg/kg): 4800 g
Food consumption, cumulated for all animals in the group (M. haemolytica; D −1 (before infection), 10 mg/kg): 4800 g
Bacteriological Cure (x of n) (M. haemolytica; 5 mg/kg BW): 1/3
Survival (x of n) (M. haemolytica; 5 mg/kg BW): 3/3
Bacteriological Cure (x of n) (M. haemolytica; 10 mg/kg BW): 3/3
Survival (x of n) (M. haemolytica; 10 mg/kg BW): 3/3
efficacy against an artificial lung infection with M. haemolytica in the calf (M. haemolytica; tested dosages 10 mg/kg for C 231 and 10 mg/kg and 5 mg/kg for C 329, conclusion in words): effective
